Assays:
Experiment in all cases: biochemical
Parameters in all cases: Eurofins recombinant human kinase profiling, remaining kinase activity as % of control, 10 uM ATP
Conditions in all cases: ATP 10 uM; read-out: %Ctrl@10 μM
A-Raf(h) = target: T1, A-Raf(h) (Homo sapiens, UniProt P10398)
T1 construct: gene ARAF
Outline: (§1)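 Recombinant human kinases, 401 in total, screened using an outsourced kinase profiling assay.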

ALK6(h) = target: T2, ALK6(h) (Homo sapiens, UniProt O00238)
T2 construct: gene BMPR1B
Outline: as §1

Abl (H396P) (h) = target: T3, Abl (H396P) (h) (Homo sapiens, UniProt P00519, H396P)
T3 construct: gene ABL1
Outline: as §1

BTK(R28H)(h) = BTK(R28H)(h) (Homo sapiens, UniProt Q06187, R28H)
Outline: as §1

CDK5/p35(h) = target: T4, CDK5/p35(h) (Homo sapiens, UniProt Q00535)
T4 construct: p35
Outline: as §1

CDK6/cyclinD3(h) = CDK6/cyclinD3(h) (Homo sapiens, UniProt Q00534)
Outline: as §1

ChaK1(h) = target: T5, ChaK1(h) (Homo sapiens, UniProt Q96QT4)
T5 construct: gene TRPM7
T5 sequence (Q96QT4 whole entry): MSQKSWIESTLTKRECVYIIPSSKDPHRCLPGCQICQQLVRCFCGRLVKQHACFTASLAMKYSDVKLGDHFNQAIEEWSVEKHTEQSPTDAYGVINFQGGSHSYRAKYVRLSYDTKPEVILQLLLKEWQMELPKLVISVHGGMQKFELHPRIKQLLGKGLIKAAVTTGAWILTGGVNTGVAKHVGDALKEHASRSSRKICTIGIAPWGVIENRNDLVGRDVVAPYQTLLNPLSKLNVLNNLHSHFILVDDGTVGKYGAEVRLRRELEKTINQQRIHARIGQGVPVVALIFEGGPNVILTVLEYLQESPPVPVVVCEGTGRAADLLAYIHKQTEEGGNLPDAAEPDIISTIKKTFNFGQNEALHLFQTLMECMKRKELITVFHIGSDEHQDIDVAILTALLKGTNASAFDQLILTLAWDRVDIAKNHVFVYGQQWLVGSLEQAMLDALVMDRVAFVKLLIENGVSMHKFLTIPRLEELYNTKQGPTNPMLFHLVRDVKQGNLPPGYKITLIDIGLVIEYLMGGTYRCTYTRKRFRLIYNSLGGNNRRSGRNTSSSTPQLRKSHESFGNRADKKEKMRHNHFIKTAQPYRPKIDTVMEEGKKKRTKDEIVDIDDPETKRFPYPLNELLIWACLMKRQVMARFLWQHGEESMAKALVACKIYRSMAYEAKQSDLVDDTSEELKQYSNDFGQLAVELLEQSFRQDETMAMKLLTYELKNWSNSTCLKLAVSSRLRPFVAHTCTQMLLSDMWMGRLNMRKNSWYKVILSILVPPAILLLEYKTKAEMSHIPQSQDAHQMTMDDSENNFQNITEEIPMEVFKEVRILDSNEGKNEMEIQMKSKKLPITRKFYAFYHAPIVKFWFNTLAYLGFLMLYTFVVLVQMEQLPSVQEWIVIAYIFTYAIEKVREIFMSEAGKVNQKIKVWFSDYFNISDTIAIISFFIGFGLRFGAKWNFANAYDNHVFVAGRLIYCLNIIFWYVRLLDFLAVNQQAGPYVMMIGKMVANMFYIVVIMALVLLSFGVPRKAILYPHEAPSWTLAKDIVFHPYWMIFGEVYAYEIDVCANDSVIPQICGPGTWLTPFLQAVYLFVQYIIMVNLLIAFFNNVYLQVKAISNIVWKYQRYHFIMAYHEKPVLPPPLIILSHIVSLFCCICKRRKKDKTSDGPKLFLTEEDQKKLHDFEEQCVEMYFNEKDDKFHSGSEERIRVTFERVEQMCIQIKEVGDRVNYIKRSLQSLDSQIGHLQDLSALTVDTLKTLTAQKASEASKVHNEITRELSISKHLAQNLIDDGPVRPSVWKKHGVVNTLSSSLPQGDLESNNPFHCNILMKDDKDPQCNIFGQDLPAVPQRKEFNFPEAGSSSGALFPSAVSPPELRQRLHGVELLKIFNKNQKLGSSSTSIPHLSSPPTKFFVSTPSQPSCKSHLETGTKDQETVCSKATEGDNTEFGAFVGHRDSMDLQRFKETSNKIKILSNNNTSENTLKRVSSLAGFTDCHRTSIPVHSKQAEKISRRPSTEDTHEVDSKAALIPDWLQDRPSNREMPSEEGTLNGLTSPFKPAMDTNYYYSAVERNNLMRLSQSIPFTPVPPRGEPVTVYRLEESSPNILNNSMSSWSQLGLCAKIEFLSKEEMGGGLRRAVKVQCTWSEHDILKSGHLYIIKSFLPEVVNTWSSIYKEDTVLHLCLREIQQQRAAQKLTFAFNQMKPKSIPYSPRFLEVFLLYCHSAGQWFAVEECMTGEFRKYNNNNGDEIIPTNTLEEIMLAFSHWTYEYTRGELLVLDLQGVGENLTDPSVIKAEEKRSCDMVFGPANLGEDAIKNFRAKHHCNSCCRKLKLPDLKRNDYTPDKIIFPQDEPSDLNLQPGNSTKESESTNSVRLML
Outline: as §1

DMPK(h) = DMPK(h) (Homo sapiens, UniProt Q09013)
Outline: as §1

DRAK1(h) = target: T6, DRAK1(h) (Homo sapiens, UniProt Q9UEE5)
T6 construct: gene STK17A
T6 sequence (Q9UEE5 whole entry): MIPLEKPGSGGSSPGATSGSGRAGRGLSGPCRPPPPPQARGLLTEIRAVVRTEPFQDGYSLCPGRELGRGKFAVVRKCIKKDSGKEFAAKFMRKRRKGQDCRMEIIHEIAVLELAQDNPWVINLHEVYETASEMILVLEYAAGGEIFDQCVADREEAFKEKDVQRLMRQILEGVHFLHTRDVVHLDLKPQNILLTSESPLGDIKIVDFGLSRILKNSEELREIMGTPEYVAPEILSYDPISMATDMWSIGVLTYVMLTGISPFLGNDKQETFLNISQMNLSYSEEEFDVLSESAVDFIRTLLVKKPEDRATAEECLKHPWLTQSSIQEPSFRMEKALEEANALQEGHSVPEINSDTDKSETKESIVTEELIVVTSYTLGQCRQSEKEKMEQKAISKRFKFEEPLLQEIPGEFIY
Outline: as §1

EphA3(h) = EphA3(h) (Homo sapiens, UniProt P29320)
Outline: as §1

ErbB2(h) = ErbB2(h) (Homo sapiens, UniProt P04626)
Outline: as §1

Fyn(h) = Fyn(h) (Homo sapiens, UniProt P06241)
Sequence of Fyn(h) (P06241 whole entry): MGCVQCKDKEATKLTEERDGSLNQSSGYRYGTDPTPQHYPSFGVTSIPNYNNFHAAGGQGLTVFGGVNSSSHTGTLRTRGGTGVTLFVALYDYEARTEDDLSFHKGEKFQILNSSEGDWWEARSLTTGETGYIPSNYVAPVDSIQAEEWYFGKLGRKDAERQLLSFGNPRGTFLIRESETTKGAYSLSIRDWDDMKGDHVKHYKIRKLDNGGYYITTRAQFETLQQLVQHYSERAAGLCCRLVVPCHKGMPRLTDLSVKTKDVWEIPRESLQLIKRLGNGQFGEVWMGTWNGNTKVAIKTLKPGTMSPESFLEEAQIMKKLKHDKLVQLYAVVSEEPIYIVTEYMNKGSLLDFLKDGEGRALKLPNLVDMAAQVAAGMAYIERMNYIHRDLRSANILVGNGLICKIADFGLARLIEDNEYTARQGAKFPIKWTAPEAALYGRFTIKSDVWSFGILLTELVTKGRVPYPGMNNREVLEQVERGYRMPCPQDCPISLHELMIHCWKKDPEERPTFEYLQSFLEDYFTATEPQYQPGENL
Outline: as §1

GSK3α(h) = target: T7, GSK3α(h) (Homo sapiens, UniProt P49840)
T7 construct: gene GSK3A
T7 sequence (P49840 whole entry): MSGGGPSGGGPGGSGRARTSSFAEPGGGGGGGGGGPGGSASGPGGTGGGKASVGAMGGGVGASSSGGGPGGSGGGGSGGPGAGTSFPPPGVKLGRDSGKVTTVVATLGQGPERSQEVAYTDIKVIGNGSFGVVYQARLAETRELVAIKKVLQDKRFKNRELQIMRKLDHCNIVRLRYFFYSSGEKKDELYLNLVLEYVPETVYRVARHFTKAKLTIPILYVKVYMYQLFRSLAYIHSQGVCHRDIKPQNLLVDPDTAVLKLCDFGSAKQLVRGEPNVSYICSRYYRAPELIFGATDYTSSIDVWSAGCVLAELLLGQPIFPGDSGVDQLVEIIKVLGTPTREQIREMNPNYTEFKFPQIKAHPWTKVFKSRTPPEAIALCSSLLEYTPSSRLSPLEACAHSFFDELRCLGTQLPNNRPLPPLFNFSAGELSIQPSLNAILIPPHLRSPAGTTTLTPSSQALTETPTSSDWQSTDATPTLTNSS
Outline: as §1

Lyn(h) = Lyn(h) (Homo sapiens, UniProt P07948)
Sequence of Lyn(h) (P07948 whole entry): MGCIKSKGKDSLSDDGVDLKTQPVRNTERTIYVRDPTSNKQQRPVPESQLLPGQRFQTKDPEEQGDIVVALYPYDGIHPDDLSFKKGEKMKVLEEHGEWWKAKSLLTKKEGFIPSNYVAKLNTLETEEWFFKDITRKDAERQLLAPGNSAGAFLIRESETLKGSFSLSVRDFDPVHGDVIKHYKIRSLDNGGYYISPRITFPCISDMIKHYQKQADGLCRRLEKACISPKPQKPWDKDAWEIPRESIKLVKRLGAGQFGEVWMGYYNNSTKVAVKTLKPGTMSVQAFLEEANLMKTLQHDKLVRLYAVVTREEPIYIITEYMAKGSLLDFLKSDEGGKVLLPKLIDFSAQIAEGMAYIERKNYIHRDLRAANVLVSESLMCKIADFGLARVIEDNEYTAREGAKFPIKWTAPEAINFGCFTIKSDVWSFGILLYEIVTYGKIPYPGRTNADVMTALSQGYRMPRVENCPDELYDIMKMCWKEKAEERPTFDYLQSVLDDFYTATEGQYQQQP
Outline: as §1

MAP4K4(h) = MAP4K4(h) (Homo sapiens, UniProt O95819)
Outline: as §1

MSK2(h) = target: T8, MSK2(h) (Homo sapiens, UniProt O75676)
T8 construct: gene RPS6KA4
T8 sequence (O75676 whole entry): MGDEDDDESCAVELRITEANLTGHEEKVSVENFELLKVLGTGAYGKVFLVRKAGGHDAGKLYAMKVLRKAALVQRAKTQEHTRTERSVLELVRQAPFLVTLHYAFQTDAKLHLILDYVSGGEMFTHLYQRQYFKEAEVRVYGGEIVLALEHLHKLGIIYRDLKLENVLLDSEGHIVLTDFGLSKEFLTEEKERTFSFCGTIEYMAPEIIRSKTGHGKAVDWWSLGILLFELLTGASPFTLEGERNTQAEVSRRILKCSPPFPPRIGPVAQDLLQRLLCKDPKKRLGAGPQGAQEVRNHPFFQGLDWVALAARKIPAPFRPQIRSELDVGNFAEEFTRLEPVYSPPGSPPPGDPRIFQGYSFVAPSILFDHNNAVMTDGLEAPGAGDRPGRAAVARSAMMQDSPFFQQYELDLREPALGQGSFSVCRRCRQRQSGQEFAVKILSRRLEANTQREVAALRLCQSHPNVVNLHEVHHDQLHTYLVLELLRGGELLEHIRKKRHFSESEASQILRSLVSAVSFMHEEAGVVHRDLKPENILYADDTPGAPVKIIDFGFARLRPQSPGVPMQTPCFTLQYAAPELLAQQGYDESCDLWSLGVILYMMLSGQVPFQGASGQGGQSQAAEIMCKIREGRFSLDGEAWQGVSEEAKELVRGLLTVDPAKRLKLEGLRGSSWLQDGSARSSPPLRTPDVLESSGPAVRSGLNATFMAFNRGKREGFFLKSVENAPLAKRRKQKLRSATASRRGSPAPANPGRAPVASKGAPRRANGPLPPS
Outline: as §1

NIM1(h) = target: T9, NIM1(h) (Homo sapiens, UniProt Q8IY84)
T9 construct: gene NIM1K
Outline: as §1

PDK1(h) = target: T10, PDK1(h) (Homo sapiens, UniProt O15530)
T10 construct: gene PDPK1
Outline: as §1

SRPK1(h) = SRPK1(h) (Homo sapiens, UniProt Q96SB4)
Outline: as §1

Snk(h) = target: T11, Snk(h) (Homo sapiens, UniProt Q9NYY3)
T11 construct: gene PLK2
Outline: as §1

TLK1(h) = TLK1(h) (Homo sapiens, UniProt Q9UKI8)
Outline: as §1

TSSK1(h) = target: T12, TSSK1(h) (Homo sapiens, UniProt Q9BXA7)
T12 construct: gene TSSK1B
T12 sequence (Q9BXA7 whole entry): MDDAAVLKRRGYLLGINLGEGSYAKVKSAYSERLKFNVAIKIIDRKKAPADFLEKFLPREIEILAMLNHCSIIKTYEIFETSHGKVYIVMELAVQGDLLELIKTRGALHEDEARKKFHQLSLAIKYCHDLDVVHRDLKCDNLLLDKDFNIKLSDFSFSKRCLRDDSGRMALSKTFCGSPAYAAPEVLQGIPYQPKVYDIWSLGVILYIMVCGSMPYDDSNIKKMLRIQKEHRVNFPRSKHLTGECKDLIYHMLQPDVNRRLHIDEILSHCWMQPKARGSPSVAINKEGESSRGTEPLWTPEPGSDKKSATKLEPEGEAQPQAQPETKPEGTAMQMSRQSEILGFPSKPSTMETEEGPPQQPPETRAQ
Outline: as §1

cKit(D816H)(h) = target: T13, cKit(D816H)(h) (Homo sapiens, UniProt P10721, D816H)
T13 construct: gene KIT
Outline: as §1

`C1=C(c2nc(-c3cnn(C4CCNCC4)c3)cn3cc(-c4ccccc4)nc23)CCOC1` [YL-939] gave a remaining activity at 10 µM (A-Raf(h)) of 83%, a remaining activity at 10 µM (ALK6(h)) of 105% and a remaining activity at 10 µM (Abl (H396P) (h)) of 91%. It also gave a remaining activity at 10 µM (BTK(R28H)(h)) of 107%, a remaining activity at 10 µM (CDK5/p35(h)) of 100% and a remaining activity at 10 µM (CDK6/cyclinD3(h)) of 94%. It also gave a remaining activity at 10 µM (ChaK1(h)) of 92%, a remaining activity at 10 µM (DMPK(h)) of 107% and a remaining activity at 10 µM (DRAK1(h)) of 60%. For the same molecule, the remaining activity at 10 µM (EphA3(h)) was 73%, the remaining activity at 10 µM (ErbB2(h)) was 72% and the remaining activity at 10 µM (Fyn(h)) was 81%. The remaining activity at 10 µM (GSK3α(h)) was 119%, the remaining activity at 10 µM (Lyn(h)) was 95% and the remaining activity at 10 µM (MAP4K4(h)) was 86%. The remaining activity at 10 µM (MSK2(h)) was 90%, the remaining activity at 10 µM (NIM1(h)) was 85% and the remaining activity at 10 µM (PDK1(h)) was 127%. It also gave a remaining activity at 10 µM (SRPK1(h)) of 107%, a remaining activity at 10 µM (Snk(h)) of 112% and a remaining activity at 10 µM (TLK1(h)) of 71%. It also gave a remaining activity at 10 µM (TSSK1(h)) of 80% and a remaining activity at 10 µM (cKit(D816H)(h)) of 90%.

— paper PMC9719519, “Non-classical ferroptosis inhibition by a small molecule targeting PHB2” (Nature Communications, 2022)
